The NIST ThermoML archive (doi:10.1016/j.jct.2017.02.005)
Values joined by “and” are separate entries in the source; they are usually repeats but may differ in a detail not shown here. Equal entries are not always repeated. ± gives the expanded uncertainty stated by the source.

Conditions: Liquid, Ebulliometric method (Recirculating still)

SMILES: CC(C)O [propan-2-ol]
- vapor or sublimation pressure (317.07 K): 17.46 ± 0.22 kPa
- vapor or sublimation pressure (317.65 K): 17.98 ± 0.22 kPa
- vapor or sublimation pressure (318.1 K): 18.39 ± 0.22 kPa
- vapor or sublimation pressure (318.73 K): 19.01 ± 0.22 kPa
- vapor or sublimation pressure (319.19 K): 19.48 ± 0.23 kPa
- vapor or sublimation pressure (319.72 K): 20.03 ± 0.23 kPa
- vapor or sublimation pressure (320.19 K): 20.52 ± 0.23 kPa
- vapor or sublimation pressure (320.65 K): 21 ± 0.23 kPa
- vapor or sublimation pressure (321.11 K): 21.49 ± 0.23 kPa
- vapor or sublimation pressure (321.58 K): 22.03 ± 0.23 kPa
- vapor or sublimation pressure (322.07 K): 22.55 ± 0.23 kPa
- vapor or sublimation pressure (322.47 K): 23.03 ± 0.23 kPa
- vapor or sublimation pressure (322.91 K): 23.52 ± 0.23 kPa
- vapor or sublimation pressure (323.32 K): 24.02 ± 0.24 kPa
- vapor or sublimation pressure (323.71 K): 24.51 ± 0.24 kPa
- vapor or sublimation pressure (324.13 K): 25.03 ± 0.24 kPa
- vapor or sublimation pressure (324.49 K): 25.48 ± 0.24 kPa
- vapor or sublimation pressure (324.94 K): 26.04 ± 0.24 kPa
- vapor or sublimation pressure (325.3 K): 26.52 ± 0.24 kPa
- vapor or sublimation pressure (325.72 K): 27.08 ± 0.24 kPa
- vapor or sublimation pressure (326.18 K): 27.69 ± 0.24 kPa
- vapor or sublimation pressure (326.53 K): 28.19 ± 0.24 kPa
- vapor or sublimation pressure (326.99 K): 28.83 ± 0.24 kPa
- vapor or sublimation pressure (327.46 K): 29.45 ± 0.25 kPa
- vapor or sublimation pressure (327.86 K): 30.08 ± 0.25 kPa
- vapor or sublimation pressure (328.47 K): 30.96 ± 0.25 kPa
- vapor or sublimation pressure (329.06 K): 31.86 ± 0.25 kPa
- vapor or sublimation pressure (329.64 K): 32.76 ± 0.26 kPa
- vapor or sublimation pressure (330.26 K): 33.77 ± 0.26 kPa
- vapor or sublimation pressure (330.73 K): 34.52 ± 0.26 kPa
- vapor or sublimation pressure (331.32 K): 35.48 ± 0.26 kPa
- vapor or sublimation pressure (331.83 K): 36.37 ± 0.27 kPa
- vapor or sublimation pressure (332.44 K): 37.45 ± 0.27 kPa
- vapor or sublimation pressure (332.99 K): 38.41 ± 0.27 kPa
- vapor or sublimation pressure (333.5 K): 39.33 ± 0.27 kPa
- vapor or sublimation pressure (334.1 K): 40.41 ± 0.28 kPa
- vapor or sublimation pressure (334.6 K): 41.44 ± 0.28 kPa
- vapor or sublimation pressure (335.12 K): 42.44 ± 0.28 kPa
- vapor or sublimation pressure (335.64 K): 43.46 ± 0.28 kPa
- vapor or sublimation pressure (336.11 K): 44.38 ± 0.29 kPa
- vapor or sublimation pressure (336.55 K): 45.32 ± 0.29 kPa
- vapor or sublimation pressure (337.07 K): 46.34 ± 0.29 kPa
- vapor or sublimation pressure (337.5 K): 47.28 ± 0.3 kPa
- vapor or sublimation pressure (337.98 K): 48.35 ± 0.3 kPa
- vapor or sublimation pressure (338.45 K): 49.34 ± 0.29 kPa
- vapor or sublimation pressure (338.86 K): 50.25 ± 0.3 kPa
- vapor or sublimation pressure (339.3 K): 51.26 ± 0.31 kPa
- vapor or sublimation pressure (339.72 K): 52.33 ± 0.31 kPa
- vapor or sublimation pressure (340.04 K): 53.01 ± 0.3 kPa
- vapor or sublimation pressure (340.43 K): 53.94 ± 0.31 kPa
- vapor or sublimation pressure (340.89 K): 55.03 ± 0.31 kPa
- vapor or sublimation pressure (341.25 K): 55.92 ± 0.31 kPa
- vapor or sublimation pressure (341.69 K): 56.96 ± 0.32 kPa
- vapor or sublimation pressure (342.09 K): 58.05 ± 0.33 kPa
- vapor or sublimation pressure (342.48 K): 59.04 ± 0.33 kPa
- vapor or sublimation pressure (342.82 K): 59.93 ± 0.33 kPa
- vapor or sublimation pressure (343.2 K): 60.91 ± 0.33 kPa
- vapor or sublimation pressure (343.59 K): 61.94 ± 0.34 kPa
- vapor or sublimation pressure (343.96 K): 62.98 ± 0.34 kPa
- vapor or sublimation pressure (344.32 K): 63.92 ± 0.34 kPa
- vapor or sublimation pressure (344.68 K): 64.96 ± 0.35 kPa
- vapor or sublimation pressure (345.05 K): 65.97 ± 0.34 kPa
- vapor or sublimation pressure (345.35 K): 66.84 ± 0.36 kPa
- vapor or sublimation pressure (345.75 K): 68.03 ± 0.36 kPa
- vapor or sublimation pressure (346.13 K): 69.14 ± 0.36 kPa
- vapor or sublimation pressure (346.46 K): 70.12 ± 0.36 kPa
- vapor or sublimation pressure (347.11 K): 72.04 ± 0.37 kPa
- vapor or sublimation pressure (347.79 K): 74.18 ± 0.37 kPa
- vapor or sublimation pressure (348.37 K): 75.96 ± 0.37 kPa
- vapor or sublimation pressure (348.95 K): 77.81 ± 0.38 kPa
- vapor or sublimation pressure (349.61 K): 79.96 ± 0.39 kPa
- vapor or sublimation pressure (350.08 K): 81.58 ± 0.4 kPa
- vapor or sublimation pressure (350.75 K): 83.94 ± 0.4 kPa
- vapor or sublimation pressure (351.21 K): 85.47 ± 0.4 kPa
- vapor or sublimation pressure (351.69 K): 87.17 ± 0.41 kPa
- vapor or sublimation pressure (352.09 K): 88.63 ± 0.41 kPa
- vapor or sublimation pressure (352.54 K): 90.24 ± 0.42 kPa
- vapor or sublimation pressure (353.16 K): 92.57 ± 0.43 kPa
- vapor or sublimation pressure (353.66 K): 94.46 ± 0.43 kPa
- vapor or sublimation pressure (354.2 K): 96.49 ± 0.43 kPa
- vapor or sublimation pressure (354.59 K): 98.05 ± 0.44 kPa
- vapor or sublimation pressure (355.09 K): 100 ± 0.45 kPa and 100.03 ± 0.45 kPa
- vapor or sublimation pressure (355.38 K): 101.28 ± 0.45 kPa
- vapor or sublimation pressure (355.93 K): 103.44 ± 0.45 kPa
- vapor or sublimation pressure (356.4 K): 105.38 ± 0.46 kPa
- vapor or sublimation pressure (356.76 K): 106.91 ± 0.47 kPa
- vapor or sublimation pressure (357.16 K): 108.63 ± 0.47 kPa
- vapor or sublimation pressure (357.52 K): 110.13 ± 0.47 kPa
- vapor or sublimation pressure (357.93 K): 111.88 ± 0.49 kPa
- vapor or sublimation pressure (358.35 K): 113.79 ± 0.49 kPa
- vapor or sublimation pressure (358.65 K): 115.1 ± 0.5 kPa
- vapor or sublimation pressure (358.98 K): 116.64 ± 0.5 kPa
- vapor or sublimation pressure (359.43 K): 118.64 ± 0.5 kPa
- vapor or sublimation pressure (359.77 K): 120.24 ± 0.52 kPa
- vapor or sublimation pressure (360.16 K): 122.11 ± 0.52 kPa
- vapor or sublimation pressure (360.57 K): 124.03 ± 0.52 kPa
- vapor or sublimation pressure (360.9 K): 125.62 ± 0.52 kPa
- vapor or sublimation pressure (361.26 K): 127.36 ± 0.52 kPa
- vapor or sublimation pressure (361.62 K): 129.08 ± 0.54 kPa
- vapor or sublimation pressure (361.98 K): 130.93 ± 0.55 kPa
- vapor or sublimation pressure (362.26 K): 132.35 ± 0.54 kPa
- vapor or sublimation pressure (362.52 K): 133.65 ± 0.54 kPa

SMILES: O [water]
- vapor or sublimation pressure (372.81 K): 100 ± 0.65 kPa
- vapor or sublimation pressure (372.84 K): 100 ± 0.75 kPa
